Source: patent US20040006142A1, “Ocular tension depressor” (priority 2002, published 2004)

Assay: Ocular tension (IOP) lowering in rabbits after eye drop, Tonopen XL tonometer
Type: in vivo, Rabbits (New Zealand albino)
Details: eye drop of 0.5% preparation, 50 μL; for AUC0-8 hr Δ IOP % mean ± S.D.: IOP before, 2.5 h and 8 h after treatment, trapezoidal rule, change relative to pre-treatment; for ocular tension compared with the control group: p < 0.05 vs medium control
Experimental: Rabbits (New Zealand albino, body weight: 2.0 to 2.5 kg) having ocular tension of 15 mmHg before treated were used in this experiment. Experimental group of the rabbits were treated with an eye drop of the preparation of a 0.5% concentration of the compounds A and B with a dosage of 50 μL at a time. Control group of the rabbits were treated with an eye drop of a medium (ophthalmic solutions containing 0.40% of NaH2PO4, 0.47% of NaHPO4, 0.47% of NaCl, and 1.0% of polysorbate 80 with pH 6.8) with the same dosage as in the experimental group at a time. The ocular tension of the experimental group and the control group was measured with a Tonopen™ XL tonometer before treatment, 2.5 hours, and 8 hours after treatment.
Next, a ratio of ocular tension change relative to ocular tension measured before treatment (Δ IOP %) was calculated, and an area (AUC0-8hr Δ IOP %) defined by the area under the curve obtained by plotting out Δ IOP % with respect to the horizontal axis representing lapse of time was calculated in accordance with a method of trapezoidal rule.

Row | SMILES | AUC0-8 hr Δ IOP % mean ± S.D. [%] | ocular tension compared with the control group
1 | COc1cc(C(=O)N(C)c2ccc(C)cc2OCCCCCC(=O)N2CCN(C)CC2)ccc1NC(=O)c1ccccc1OCCCN [Compound A, 4-[2-(3-aminopropyl-1-yl)oxy]benzoylamino-3-methoxy-N-methyl-N-{4-methyl-2-[5-(4-methylpiperazin-1-yl)carbonylpent-1-yloxy]phenyl}benzamide] | −147.0 ± 89.0 | significantly lowered
2 | Cc1ccc(-c2ccccc2C(=O)Nc2ccc(C(=O)N3CCC(=O)N(CC(=O)N4CCN(C)CC4)c4ccccc43)cc2)cc1 [Compound B, 5-{4-[2-(4-methylphenyl)benzoylamino]benzoyl}-1-[(4-methyl-1-piperazinyl)carbonylmethyl]-1,3,4,5-tetrahydro-1,5-benzodi azepin-2(2H)-one] | −145.8 ± 87.7 | significantly lowered
